# Measurements published in patent US4347319A, “Microbiological epoxidation process” (priority 1980, dated 1982).
# Experiments:
# [1] = tested on: cell extract of Candida utilis ATCC 26,387; test: Oxidation of secondary alcohols to methylketone by cell extracts of yeasts; format: biochemical
# Pichia sp. NRRL-Y-11328 = test: Oxidation of sec-alcohols to ketones by cell suspensions of yeasts; format: cell-based; settings: sec-alcohol to methyl ketone
# [2] = tested on: Methylomonas streptobacterium CRL 17 PM3 NRRL B-11,208; test: Sec. alcohol oxidation by cell suspensions of methanol-grown cells; format: cell-based; settings: sec. alcohol to methyl ketone
# [3] = tested on: Methylomonas methanica CRL M4P NRRL B-11,205; test: as above; format: cell-based; settings: sec. alcohol to methyl ketone
# [4] = tested on: Methylosinus trichosporium CRL 15 NRRL B-11,202; test: as above; format: cell-based; settings: sec. alcohol to methyl ketone
# [5] = tested on: Methylobacterium organophilum CRL 26 NRRL B-11,222; test: as above; format: cell-based; settings: sec. alcohol to methyl ketone
# [6] = tested on: Methylococcus capsulatus CRL 25 NRRL B-11,221; test: as above; format: cell-based; settings: sec. alcohol to methyl ketone
# [7] = tested on: Methylobacter bovis CRL 19 NRRL B-11,217; test: as above; format: cell-based; settings: sec. alcohol to methyl ketone
# [8] = tested on: Methylococcus capsulatus CRL M1 NRRL B-11,219; test: as above; format: cell-based; settings: sec. alcohol to methyl ketone
# [9] = tested on: Methylobacter chroococcum CRL M6 NRRL B-11,214; test: as above; format: cell-based; settings: sec. alcohol to methyl ketone
# [10] = tested on: Methylocystis parvus CRL 18 NRRL B-11,204; test: as above; format: cell-based; settings: sec. alcohol to methyl ketone
# [11] = tested on: Kloeckera sp. Strain A2 (NRRLY-11,420); test: Oxidation of sec-alcohols to ketones by cell suspensions of yeasts; format: cell-based; settings: sec-alcohol to methyl ketone
# [12] = tested on: purified secondary alcohol dehydrogenase from Pichia sp. NRRL Y-11,328; test: Substrate specificity, electron acceptor and stoichiometry of purified yeast SADH; format: biochemical; settings: examined spectrophotometrically
# [13] = tested on: Torulopsis sp. Strain A1 (NRRLY-11,419); test: Oxidation of sec-alcohols to ketones by cell suspensions of yeasts; format: cell-based; settings: sec-alcohol to methyl ketone
# [14] = tested on: methane-grown strain Methylococcus capsulatus NRRL B-11,219; test: Effect of methane on the epoxidation of propylene by a cell suspension; format: cell-based; settings: in the presence of methane
# Excerpt: Both the epoxidation of the C2 -C4 1-alkenes and the hydroxylation of methane with the cell suspensions were inhibited by various metal-binding and metal-chelating agents, indicating the involvement of metal(s)-containing enzyme system(s). […] The epoxidation of propylene to propylene oxide by a cell suspension of methane-grown strain Methylococcus capsulatus NRRL B-11,219 was inhibited (50%) in the presence of the hydroxylation substrate, methane (Table XV). […] It is likely that the methane mono-oxygenase enzyme system catalyzes both the epoxidation of alkene and the hydroxylation of methane. May and Abbott publications, supra, have reported that the ω-hydroxylation system from Pseudomonas oleovorans catalyzed both the epoxidation of 1-octene and the hydroxylation of n-octane.
# [15] = tested on: cell-free particulate fractions derived from the methylotrophic microorganisms; test: Inhibition of conversion of C3 -C6 n-alkanes to sec. alcohols; format: biochemical; settings: oxygen and NADH present
# Excerpt: The conditions for preparing the cell suspensions or the cell-free particulate fractions from methane-grown methylotroph microorganisms is the same as described above.
# [16] = tested on: Methylocystis parvus (CRL 18 PM4) NRRL B-11,204; test: Oxidation by washed cell suspensions of methane-grown cells; format: cell-based; settings: methane-grown washed cells, 30° C.; methane to methanol, alkene to 1,2-epoxide
# Summary of the method: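 Cells grown 2 days at 30 °C under methane/air 1:1 (pH 7.0 medium), washed and resuspended in 0.15 M phosphate pH 7.0. Suspension (2 mg cells) incubated at 30 °C, 300 rpm under substrate/O2 1:1 (liquid substrates 10 μl); products measured periodically by GC with flame ionization detection.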
smiles,measurement,setting,value
CCC(C)O (stereo not drawn) [2-Butanol],specific activities,"[1]; 2-butanol as a substrate, spectrophotometrically",78 nmoles NAD^+ reduced per min. per mg. protein
same,Conversion Rate,"[1]; methanol-grown, cell extract + NAD^+, sec. alcohol to methyl ketone, gas chromatography",4.92 μmoles/hr/mg Protein
same,Conversion Rate,Pichia sp. NRRL-Y-11328; growth substrate Ethanol,6.2 μmoles/hr/mg of protein
same,Conversion Rate,Pichia sp. NRRL-Y-11328; growth substrate Methanol,6.8 μmoles/hr/mg of protein
same,Conversion Rate,Pichia sp. NRRL-Y-11328; growth substrate Methylamine,5.1 μmoles/hr/mg of protein
same,Conversion Rate,Pichia sp. NRRL-Y-11328; growth substrate Methylformate,6.9 μmoles/hr/mg of protein
same,Conversion Rate,Pichia sp. NRRL-Y-11328; growth substrate Propylamine,2.1 μmoles/hr/mg of protein
same,Conversion Rates,[2],2.0 μmoles/hr/mg protein
same,Conversion Rates,[3],2.5 μmoles/hr/mg protein
same,Conversion Rates,[4],4.5 μmoles/hr/mg protein
same,Conversion Rates,[5],2.5 μmoles/hr/mg protein
same,Conversion Rates,[6],0.95 μmoles/hr/mg protein
same,Conversion Rates,[7],1.8 μmoles/hr/mg protein
same,Conversion Rates,[8],2.0 μmoles/hr/mg protein
same,Conversion Rates,[9],1.4 μmoles/hr/mg protein
same,Conversion Rates,[10],1.0 μmoles/hr/mg protein
same,Conversion Rate,[11]; growth substrate Ethanol,5.7 μmoles/hr/mg of protein
same,Conversion Rate,[11]; growth substrate Methanol,5.9 μmoles/hr/mg of protein
same,Conversion Rate,[11]; growth substrate Methylamine,5.4 μmoles/hr/mg of protein
same,Conversion Rate,[11]; growth substrate Methylformate,5.9 μmoles/hr/mg of protein
same,Conversion Rate,[11]; growth substrate Propylamine,4.2 μmoles/hr/mg of protein
same,oxidation by the purified enzyme,[12],catalyzed the oxidation
same,Conversion Rate,[13]; growth substrate Ethanol,4.7 μmoles/hr/mg of protein
same,Conversion Rate,[13]; growth substrate Methanol,4.9 μmoles/hr/mg of protein
same,Conversion Rate,[13]; growth substrate Methylamine,4.5 μmoles/hr/mg of protein
same,Conversion Rate,[13]; growth substrate Methylformate,4.9 μmoles/hr/mg of protein
same,Conversion Rate,[13]; growth substrate Propylamine,3.8 μmoles/hr/mg of protein
C [Methane],inhibition of the epoxidation of propylene to propylene oxide,[14],50%
C=CC [Propylene],inhibition of conversion of n-alkanes to sec. alcohols,[15],inhibited
same,Oxidative Conversion Rates,[16],1.5 μmole/hr/mg protein
